Experimental data published in patent US20060264493A1, “Tetracyclic pyrazole derivatives as kinase inhibitors, process for their preparation and pharmaceutical compositions comprising them” (priority 2003, published 2006).

Row | melting point [°C] | SMILES
1 | 176 to 180 | O=C(Nc1ccc2[nH]c3c(c2c1)CCc1cn[nH]c1-3)c1cccs1 [Example 8, N-(1,4,5,10-tetrahydropyrazolo[3,4-a]carbazol-7-yl) thiophene-2-carboxamide]
2 | 240 to 243 | COC(=O)c1ccc2c3c([nH]c2c1)-c1[nH]ncc1CC3 [Example 12, Methyl 1,4,5,10-tetrahydropyrazolo[3,4-a]carbazole-8-carboxylate]
3 | 214 to 216 | CCOC(=O)c1ccc2[nH]c3c(c2c1)CCc1cn[nH]c1-3 [Example 11, Ethyl 1,4,5,10-tetrahydropyrazolo[3,4-a]carbazole-7-carboxylate]
4 | > 260 | O=C(O)c1ccc2[nH]c3c(c2c1)CCc1c[nH]nc1-3 [Example 2, 2,4,5,10-Tetrahydropyrazolo[3,4-a]carbazole-7-carboxylic acid]
5 | 237 to 241 | Cl.Nc1ccc2[nH]c3c(c2c1)CCc1cn[nH]c1-3
6 | 186 to 190 | CC(C)CNC(=O)c1ccc2[nH]c3c(c2c1)CCc1cn[nH]c1-3 [Example 9, N-isobutyl-1,4,5,10-tetrahydropyrazolo[3,4-a]carbazole-7-carboxamide]
7 | > 260 | O=C(O)c1cccc2[nH]c3c(c12)CCc1c[nH]nc1-3 [Example 3, 2,4,5,10-Tetrahydropyrazolo[3,4-a]carbazole-6-carboxylic acid]
8 | 198 to 205 | CN1CCN(C(=O)c2ccc3[nH]c4c(c3c2)CCc2cn[nH]c2-4)CC1 [Example 10, 7-[(4-Methylpiperazin-1-yl)carbonyl]-1,4,5,10-tetrahydropyrazolo[3,4-a]carbazole]
9 | 224 to 226 | CCOC(=O)c1[nH]nc2c1CCc1c-2[nH]c2ccccc12 [Example 5, Ethyl 2,4,5,10-tetrahydropyrazolo[3,4-a]carbazole-3-carboxylate]
10 | > 260 | Cl.O=C(O)c1n[nH]c2c1CCc1c-2[nH]c2ccccc12
11 | > 260 | O=[N+]([O-])c1ccc2[nH]c3c(c2c1)CCc1c[nH]nc1-3 [Example 1, 7-Nitro-2,4,5,10-tetrahydropyrazolo[3,4-a]carbazole]
12 | 182 to 185 | CC(C)CC(=O)Nc1ccc2[nH]c3c(c2c1)CCc1cn[nH]c1-3 [Example 7, 3-Methyl-N-(1,4,5,10-tetrahydropyrazolo[3,4-a]carbazol-7-yl)butanamide]
13 | > 260 | O=C(O)c1ccc2c3c([nH]c2c1)-c1n[nH]cc1CC3 [Example 4, 2,4,5,10-Tetrahydropyrazolo[3,4-a]carbazole-8-carboxylic acid]
